Reference: publication PMC4279406, “Simultaneous targeting of PI3Kδ and a PI3Kδ-dependent MEK1/2-Erk1/2 pathway for therapy in pediatric B-cell acute lymphoblastic leukemia” (Oncotarget, 2014)
Read-outs that look alike come from different tables or passages of the source.

System: Rh30-Myr-p110δ cells
Test: Akt phosphorylation in isogenic Rh30-Myr-p110 cells (Western blot)
Format: cell-based, human
Conditions: for EC50 / IC50: Homo sapiens; for EC50: Rh30-Myr-p110δ cells; for IC50: serum-free 12 h, compound 1 h, band intensity, mean of three experiments
Excerpt: To assess the selectivity of X-370 in the context of an isogenic cellular background, we generated a panel of Rh30 human rhabdomyosarcoma cell lines each of which stably expresses a single myristoylated (Myr)-epitope tagged p110 human class I PI3K catalytic subunit, termed as Rh30-Myr-p110α, Rh30-Myr-p110β, Rh30-Myr-p110γ or Rh30-Myr-p110δ. In these cells, endogenous PI3K is not activated under serum-free culture conditions, whereas the ectopically expressed p110 isoforms are membrane-anchored and constitutively active due to myristoylation at N-terminal. Utilizing this cell panel, isoform-specific PI3K activity can be determined for any given inhibitor[25]. These cells were treated with X-370 and phosphorylated Akt was detected as the readout of PI3K activity. X-370 inhibited phosphorylation of Akt at both Thr308 and Ser473 in a dose-dependent manner in four tested cell lines (Figure 2A). […] Similar property was also observed in CAL-101 (Figure S2).
Cell lysates were probed with indicated antibodies. The IC50 values were calculated based on relative band intensity measured with ImageQuant™ TL (GE Healthcare Life Sciences, Piscataway, NJ) (B). Data shown are mean values from three independent experiments. (C, D, E, F) X-370 blocked stimuli-triggered PI3Kδ activation. MEF cells and THP-1 were starved in serum-free medium for 12 h or 4 h respectively and X-370 were added for an additional 1 h treatment following stimulation of IGF-1 at 100 ng/ml for MEF cells (C), LPA at 10 μM for MEF cells (D), MCP-1 at 100ng/ml for THP-1 (E) and M-CSF at 50 ng/ml for THP-1 (F). Similar results were derived from 3 independent experiments. TEXT PRINTED IN THE PICTURE: (B) X-370: IC50 (μM) in Rh30-Myr-p110s, Akt pT308, PI3Kα: 0.68; IC50 (μM) in Rh30-Myr-p110s, Akt pT308, PI3Kβ: 0.4; IC50 (μM) in Rh30-Myr-p110s, Akt pT308, PI3Kγ: 0.46; IC50 (μM) in Rh30-Myr-p110s, Akt pT308, PI3Kδ: 0.032; IC50 (μM) in Rh30-Myr-p110s, Akt pS473, PI3Kα: 0.53; IC50 (μM) in Rh30-Myr-p110s, Akt pS473, PI3Kβ: 0.29; IC50 (μM) in Rh30-Myr-p110s, Akt pS473, PI3Kγ: 0.23; IC50 (μM) in Rh30-Myr-p110s, Akt pS473, PI3Kδ: 0.02 DOUBTS OF THE COPYIST ABOUT THIS PICTURE: Panel B prints no substance label in the table itself; the label X-370 is taken from the other panels of the same picture, where it is the only substance printed. […]
Cells were treated as indicated conditions and then subjected to lysate to perform standard Western blot as described previously1. Briefly, whole-cell lysates and SDS-loading buffer diluted cell fractions were analyzed on SDS-PAGE gels. Transfer to nitrocellulose membranes, nonfat milk blocking, probing with indicated primary antibodies and the corresponding HRP-conjugated second antibodies.
Chemiluminescence were performed and captured using ImageQuant LAS 4000 (GE healthcare Life Sciences, Piscataway, NJ, USA) and band intensity was measure both with ImageQuant™ TL (GE Healthcare Life Sciences) 2. […]
(also on this page, place not known: PI3Kδ -dependent MEK1/2 - B -cell previously 1. whole -cell SDS -loading SDS -PAGE HRP -conjugated (G E A B Val828 Trp760 Thr750 Met752 Tyr813 affinity pocket specificity pocket hinge Glu826 CAL-101 X-370) […]
(1 picture or pasted object on this page, not shown here) […]
in serum-free medium for 12 h and then incubated with serially diluted CAL -101 for an additional 1 h.
Cell lysates were probed with indicated antibodies. The IC50 values were calculated based on relative band intensity measured with ImageQuant™ TL (GE Healthcare Life Sciences, Piscataway, NJ). Data shown are mean values from three independent experiments.
Table S1: Inhibitory activity of X-370 against protein kinases […]
kinome at 10 μM. The relative kianse activity left in the presence of 10 μM were shown (Mi llipore […]
Kinase activity (% of control) Kinase activity (% of control) Kinase activity (% of control) […]
CDK1/cyclinB 97 Lck activated 89 Ret 125 […]

- fold lower EC50 in Rh30-Myr-p110δ than in isogenic Rh30-Myr-p110α/β/γ cells (Akt pT308 and pS473): at least 10 fold
- EC50 (read-out: EC50, Akt phosphorylation (Akt pS473)): 20 nM
- EC50 (read-out: EC50, Akt phosphorylation (Akt pT308)): 32 nM
- IC50 (read-out: IC50 (μM) in Rh30-Myr-p110s, Akt pS473, PI3Kδ): 0.02 µM
- IC50 (read-out: IC50 (μM) in Rh30-Myr-p110s, Akt pT308, PI3Kδ): 0.032 µM
Compound: O=C(N1CCCC1)N1CCC(n2cnc3c(-n4c(C(F)F)nc5ccccc54)nc(N4CCOCC4)nc32)CC1 [X-370]
